# How the values were obtained:
# Assay type in all cases: in vivo
# soybean plant = experiment: Test Example 4: phytotoxicity to upland crop plants, treatment after emergence; settings: dosage 5 kg/ha, sprayed after emergence, judged 14 days after treatment
# Procedure, shortened: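 Seeds sown in soil and covered. Plants raised to specified leaf stages. Agent with test compound at a prescribed concentration sprayed. Herbicidal effect and crop damage scored after 14 days as weed-killing rate.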
# wheat = experiment: as above; settings: dosage 5 kg/ha, sprayed after emergence, judged 14 days after treatment
# Procedure, shortened: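 Upland weeds and crop plants (soybean, wheat) are grown from seed in soil until they reach given leaf stages, then treated by spraying with the compound-containing agent; effects are judged two weeks later.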
# [1] = tested on: velvetleaf (Abutilon theophtasti L.), At; experiment: Test Example 3: herbicidal effect on upland weeds before emergence; settings: dosage 5 kg/ha
# Procedure, shortened: (§1)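 Herbicidal activity was rated from kill rate determined 14 days post-spray, the compound having been applied pre-emergence as a liquid agent.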
# [2] = tested on: forxtail grass (Alopecurus aequalis var. amurensis Ohwi), Am; experiment: as above; settings: foxtail grass, dosage 5 kg/ha
# Procedure, shortened: as §1
# [3] = tested on: bird's eye speedwell (Veronica persica Poir.), Vp; experiment: as above; settings: dosage 5 kg/ha
# Procedure, shortened: as §1
# [4] = tested on: cocklebur (Xanthium strumarium L.), Xs; experiment: as above; settings: dosage 5 kg/ha
# Procedure, shortened: as §1
# [5] = tested on: cleavers (Galium aparine L.), Ga; experiment: as above; settings: dosage 5 kg/ha
# Procedure, shortened: as §1
# [6] = tested on: barnyard grass (Echinochloa crus-galli Beauv.), Ec; experiment: as above; settings: dosage 5 kg/ha
# Procedure, shortened: as §1
# soybean plant (So) = experiment: Test Example 3: phytotoxicity to upland crop plants, treatment before emergence; settings: dosage 5 kg/ha
# Procedure, shortened: (§2)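 Pre-emergence treatment: a liquid preparation containing a prescribed concentration of test compound was sprayed, and injury to soybean and wheat was assessed 14 days later. Phytotoxicity was judged against a scoring criterion, alongside weed-killing rate.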
# wheat (Wh) = experiment: as above; settings: dosage 5 kg/ha
# Procedure, shortened: as §2
# [7] = tested on: barnyard grass (Echinochloa crus-galli Beauv.); experiment: Test Example 1: herbicidal effect on paddy field weeds before emergence; settings: Dosage 5 kg/ha
# Procedure, shortened: (§3)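 Grading reflects percent control relative to untreated plots, evaluated three weeks post-application. Treatment was a soil application of compound solution, predetermined dose, made to paddy-state pots before weed seeds germinated.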
# [8] = tested on: bulrush (Scirpus juncoides Roxb.); experiment: as above; settings: Dosage 5 kg/ha
# Procedure, shortened: as §3
# [9] = tested on: velvetleaf (Abutilon theophtasti L.), At; experiment: Test Example 4: herbicidal effect on upland weeds after emergence; settings: dosage 5 kg/ha; sprayed after emergence; judged 14 days after treatment
# Procedure, shortened: (§4)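 Weeds, soybean and wheat were sown in soil-filled vats, covered with soil and grown to set leaf stages before a post-emergence spray of an agent containing the compound at a prescribed concentration. Weed-killing rate and crop phytotoxicity were assessed 14 days after treatment.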
# [10] = tested on: forxtail grass (Alopecurus aequalis var. amurensis Ohwi), Am; experiment: as above; settings: dosage 5 kg/ha; sprayed after emergence; judged 14 days after treatment
# Procedure, shortened: as §4
# [11] = tested on: bird's eye speedwell (Veronica persica Poir.), Vp; experiment: as above; settings: dosage 5 kg/ha; sprayed after emergence; judged 14 days after treatment
# Procedure, shortened: as §4
# [12] = tested on: cocklebur (Xanthium strumarium L.), Xs; experiment: as above; settings: dosage 5 kg/ha; sprayed after emergence; judged 14 days after treatment
# Procedure, shortened: as §4
# [13] = tested on: cleavers (Galium aparine L.), Ga; experiment: as above; settings: dosage 5 kg/ha; sprayed after emergence; judged 14 days after treatment
# Procedure, shortened: as §4
# [14] = tested on: barnyard grass (Echinochloa crus-galli Beauv.), Ec; experiment: as above; settings: dosage 5 kg/ha; sprayed after emergence; judged 14 days after treatment
# Procedure, shortened: as §4
# [15] = tested on: barnyard grass (Echinochloa crus-galli Beauv.); experiment: Test Example 2: herbicidal effect on paddy field weeds after emergence; settings: Dosage 5 kg/ha; one-leaved stage; 21 days after treatment
# Procedure, shortened: (§5)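 Weeds in flooded paddy-soil pots were grown to the one-leaved stage, then the soil was treated with the compound solution at a set dosage.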
# [16] = tested on: monochoria (Monochoria vaginalis Presl); experiment: as above; settings: Dosage 5 kg/ha; one-leaved stage; 21 days after treatment
# Procedure, shortened: as §5
# [17] = tested on: bulrush (Scirpus juncoides Roxb.); experiment: as above; settings: Dosage 5 kg/ha; one-leaved stage; 21 days after treatment
# Procedure, shortened: as §5
SMILES,Phytotoxicity So (soybean plant),Phytotoxicity Wh (wheat),Herbicidal effect At [1],Herbicidal effect Am [2],Herbicidal effect Vp [3],Herbicidal effect Xs [4],Herbicidal effect Ga [5],Herbicidal effect Ec [6],Phytotoxicity So (soybean plant (So)),Phytotoxicity Wh (wheat (Wh)),Pre-emergence treatment Barnyard grass (herbicidal effect) [7],Pre-emergence treatment Bulrush (herbicidal effect) [8],Herbicidal effect At [9],Herbicidal effect Am [10],Herbicidal effect Vp [11],Herbicidal effect Xs [12],Herbicidal effect Ga [13],Herbicidal effect Ec [14],Post-emergence treatment Barnyard grass (herbicidal effect) [15],Post-emergence treatment Monochoria (herbicidal effect) [16],other results
CCCNC(=O)c1nc2c(cc1C(=O)Nc1c(CC)ccc(Cl)c1CC)CCO2 [compound 919],5 (Crop-killing rate is 100%.),5 (Crop-killing rate is 100%.),5 (Weed-killing rate is 100%.),5 (Weed-killing rate is 100%.),5 (Weed-killing rate is 100%.),5 (Weed-killing rate is 100%.),5 (Weed-killing rate is 100%.),5 (Weed-killing rate is 100%.),5 (Crop-killing rate is 100%.),5 (Crop-killing rate is 100%.),5 (Weed-killing rate is 100%.),5 (Weed-killing rate is 100%.),5 (Weed-killing rate is 100%.),5 (Weed-killing rate is 100%.),5 (Weed-killing rate is 100%.),5 (Weed-killing rate is 100%.),5 (Weed-killing rate is 100%.),5 (Weed-killing rate is 100%.),5 (Weed-killing rate is 100%.),5 (Weed-killing rate is 100%.),Post-emergence treatment Bulrush (herbicidal effect) [17]: 5 (Weed-killing rate is 100%.)
CCCNC(=O)c1nc2occc2cc1C(=O)Nc1c(CC)ccc(Cl)c1CC [compound 775],5 (Crop-killing rate is 100%.),5 (Crop-killing rate is 100%.),5 (Weed-killing rate is 100%.),5 (Weed-killing rate is 100%.),5 (Weed-killing rate is 100%.),5 (Weed-killing rate is 100%.),5 (Weed-killing rate is 100%.),5 (Weed-killing rate is 100%.),5 (Crop-killing rate is 100%.),5 (Crop-killing rate is 100%.),5 (Weed-killing rate is 100%.),5 (Weed-killing rate is 100%.),5 (Weed-killing rate is 100%.),5 (Weed-killing rate is 100%.),5 (Weed-killing rate is 100%.),5 (Weed-killing rate is 100%.),5 (Weed-killing rate is 100%.),5 (Weed-killing rate is 100%.),5 (Weed-killing rate is 100%.),5 (Weed-killing rate is 100%.),Post-emergence treatment Bulrush (herbicidal effect) [17]: 5 (Weed-killing rate is 100%.)
CCNC(=O)c1nc2ccc(OC)cc2cc1C(=O)Nc1c(CC)ccc(Cl)c1CC [compound 289],1 (Crop-killing rate is 1-39%.),2 (Crop-killing rate is 40-69%.),5 (Weed-killing rate is 100%.),4 (Weed-killing rate is 90-99%.),5 (Weed-killing rate is 100%.),3 (Weed-killing rate is 70-89%.),4 (Weed-killing rate is 90-99%.),5 (Weed-killing rate is 100%.),1 (Crop-killing rate is 1-39%.),2 (Crop-killing rate is 40-69%.),5 (Weed-killing rate is 100%.),5 (Weed-killing rate is 100%.),5 (Weed-killing rate is 100%.),4 (Weed-killing rate is 90-99%.),5 (Weed-killing rate is 100%.),3 (Weed-killing rate is 70-89%.),4 (Weed-killing rate is 90-99%.),5 (Weed-killing rate is 100%.),5 (Weed-killing rate is 100%.),5 (Weed-killing rate is 100%.),Post-emergence treatment Bulrush (herbicidal effect) [17]: 4 (Weed-killing rate is 90-99%.)
CCc1ccc(Cl)c(CC)c1NC(=O)c1cc2cc3c(cc2nc1C(=O)NCC(C)C)OCO3 [compound 339],1 (Crop-killing rate is 1-39%.),2 (Crop-killing rate is 40-69%.),4 (Weed-killing rate is 90-99%.),4 (Weed-killing rate is 90-99%.),4 (Weed-killing rate is 90-99%.),2 (Weed-killing rate is 40-69%.),3 (Weed-killing rate is 70-89%.),4 (Weed-killing rate is 90-99%.),0 (Crop-killing rate is 0-20% (No Phytotoxicity).),1 (Crop-killing rate is 1-39%.),4 (Weed-killing rate is 90-99%.),3 (Weed-killing rate is 70-89%.),4 (Weed-killing rate is 90-99%.),3 (Weed-killing rate is 70-89%.),4 (Weed-killing rate is 90-99%.),2 (Weed-killing rate is 40-69%.),2 (Weed-killing rate is 40-69%.),4 (Weed-killing rate is 90-99%.),3 (Weed-killing rate is 70-89%.),4 (Weed-killing rate is 90-99%.),Post-emergence treatment Bulrush (herbicidal effect) [17]: 2 (Weed-killing rate is 40-69%.)
CCCNC(=O)c1nc2c(cc1C(=O)Nc1c(CC)ccc(Cl)c1CC)CCCO2 [compound 414],4 (Crop-killing rate is 90-99%.),5 (Crop-killing rate is 100%.),5 (Weed-killing rate is 100%.),5 (Weed-killing rate is 100%.),5 (Weed-killing rate is 100%.),5 (Weed-killing rate is 100%.),5 (Weed-killing rate is 100%.),5 (Weed-killing rate is 100%.),4 (Crop-killing rate is 90-99%.),5 (Crop-killing rate is 100%.),5 (Weed-killing rate is 100%.),5 (Weed-killing rate is 100%.),5 (Weed-killing rate is 100%.),5 (Weed-killing rate is 100%.),5 (Weed-killing rate is 100%.),5 (Weed-killing rate is 100%.),5 (Weed-killing rate is 100%.),5 (Weed-killing rate is 100%.),5 (Weed-killing rate is 100%.),5 (Weed-killing rate is 100%.),Post-emergence treatment Bulrush (herbicidal effect) [17]: 5 (Weed-killing rate is 100%.)
